# Assay results: PubChem BioAssay (NCI)
#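 Step 1: Grow cells in 96-well plates. Step 2: Expose to compound for 48 hours at 5 concentrations. Step 3: Interpolate endpoints linearly; if unreached, use highest concentration. TGI marks complete inhibition of growth.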
# Assays:
# Assay in all cases: NCI-60 cell line screen, 48 h
# DLD-1 colon = system: DLD-1 colon
# MOLT-4 leukemia = system: MOLT-4 leukemia
# K-562 leukemia = system: K-562 leukemia
# ACHN renal = system: ACHN renal
# 786-0 renal = system: 786-0 renal
# IGROV1 ovarian = system: IGROV1 ovarian
# M19-MEL melanoma = system: M19-MEL melanoma
# LXFL 529 NSCLC = system: LXFL 529 NSCLC
# NCI-H460 lung = system: NCI-H460 lung
# NCI-H522 lung = system: NCI-H522 lung
# A549 NSCLC = system: A549 NSCLC
# NCI-H226 lung = system: NCI-H226 lung
# HT29 colon = system: HT29 colon
# UACC-62 melanoma = system: UACC-62 melanoma
# RPMI-8226 leukemia = system: RPMI-8226 leukemia
# UO-31 renal = system: UO-31 renal
# HL-60(TB) leukemia = system: HL-60(TB) leukemia
# CCRF-CEM leukemia = system: CCRF-CEM leukemia
# M14 melanoma = system: M14 melanoma
# NCI-H23 lung = system: NCI-H23 lung
# DMS 114 small cell lung = system: DMS 114 small cell lung
# HOP-62 NSCLC = system: HOP-62 NSCLC
# MALME-3M melanoma = system: MALME-3M melanoma
# SK-MEL-28 melanoma = system: SK-MEL-28 melanoma
# UACC-257 melanoma = system: UACC-257 melanoma
# SW-620 colon = system: SW-620 colon
# OVCAR-3 ovarian = system: OVCAR-3 ovarian
# OVCAR-4 ovarian = system: OVCAR-4 ovarian
# SF-539 CNS = system: SF-539 CNS
# SNB-19 CNS = system: SNB-19 CNS
# XF 498 CNS = system: XF 498 CNS
# KM20L2 colon = system: KM20L2 colon
# SNB-75 CNS = system: SNB-75 CNS
# OVCAR-5 ovarian = system: OVCAR-5 ovarian
# SF-295 CNS = system: SF-295 CNS
# SF-268 CNS = system: SF-268 CNS
# KM12 colon = system: KM12 colon
# HCT-116 colon = system: HCT-116 colon
# COLO 205 colon = system: COLO 205 colon
# TK-10 renal = system: TK-10 renal
# HOP-92 NSCLC = system: HOP-92 NSCLC
# CAKI-1 renal = system: CAKI-1 renal
# U251 CNS = system: U251 CNS
# HCC-2998 colon = system: HCC-2998 colon
# DMS 273 small cell lung = system: DMS 273 small cell lung
# HCT-15 colon = system: HCT-15 colon
# SNB-78 CNS = system: SNB-78 CNS
# OVCAR-8 ovarian = system: OVCAR-8 ovarian
# SR leukemia = system: SR leukemia
# SK-OV-3 ovarian = system: SK-OV-3 ovarian
# SN12C renal = system: SN12C renal
# A498 renal = system: A498 renal
# LOX IMVI melanoma = system: LOX IMVI melanoma
# SK-MEL-5 melanoma = system: SK-MEL-5 melanoma
# EKVX NSCLC = system: EKVX NSCLC
# SK-MEL-2 melanoma = system: SK-MEL-2 melanoma
# RXF 393 renal = system: RXF 393 renal
structure (smiles),measurement,setting,value
N#Cc1c2ccccc2cn1-c1ccc(F)cc1,TGI,DLD-1 colon,> 100 µM
same,TGI,MOLT-4 leukemia,90.5 µM
same,TGI,K-562 leukemia,> 100 µM
same,TGI,ACHN renal,> 100 µM
same,TGI,786-0 renal,> 100 µM
same,TGI,IGROV1 ovarian,> 100 µM
same,TGI,M19-MEL melanoma,> 100 µM
same,TGI,LXFL 529 NSCLC,> 100 µM
same,TGI,NCI-H460 lung,> 100 µM
same,TGI,NCI-H522 lung,43.2 µM
same,TGI,A549 NSCLC,> 100 µM
same,TGI,NCI-H226 lung,55.6 µM
same,TGI,HT29 colon,> 100 µM
same,TGI,UACC-62 melanoma,> 100 µM
same,TGI,RPMI-8226 leukemia,61.2 µM
same,TGI,UO-31 renal,39.6 µM
same,TGI,HL-60(TB) leukemia,24.2 µM
same,TGI,CCRF-CEM leukemia,> 100 µM
same,TGI,M14 melanoma,> 100 µM
same,TGI,NCI-H23 lung,56.2 µM
same,TGI,DMS 114 small cell lung,> 100 µM
same,TGI,HOP-62 NSCLC,> 100 µM
same,TGI,MALME-3M melanoma,86.1 µM
same,TGI,SK-MEL-28 melanoma,> 100 µM
same,TGI,UACC-257 melanoma,83.8 µM
same,TGI,SW-620 colon,> 100 µM
same,TGI,OVCAR-3 ovarian,67.9 µM
same,TGI,OVCAR-4 ovarian,> 100 µM
same,TGI,SF-539 CNS,> 100 µM
same,TGI,SNB-19 CNS,> 100 µM
same,TGI,XF 498 CNS,> 100 µM
same,TGI,KM20L2 colon,> 100 µM
same,TGI,SNB-75 CNS,18.9 µM
same,TGI,OVCAR-5 ovarian,> 100 µM
same,TGI,SF-295 CNS,> 100 µM
same,TGI,SF-268 CNS,99.5 µM
same,TGI,KM12 colon,97.4 µM
same,TGI,HCT-116 colon,62.3 µM
same,TGI,COLO 205 colon,61.7 µM
same,TGI,TK-10 renal,> 100 µM
same,TGI,HOP-92 NSCLC,68.5 µM
same,TGI,CAKI-1 renal,> 100 µM
same,TGI,U251 CNS,> 100 µM
same,TGI,HCC-2998 colon,> 100 µM
CCCNC(=S)NNC(=O)CSc1nc(-c2ccccc2)c(-c2ccccc2)[nH]1,TGI,DMS 273 small cell lung,> 100 µM
same,TGI,DLD-1 colon,> 100 µM
same,TGI,MOLT-4 leukemia,61.7 µM
same,TGI,ACHN renal,> 100 µM
same,TGI,786-0 renal,> 100 µM
same,TGI,HCT-15 colon,> 100 µM
same,TGI,IGROV1 ovarian,> 100 µM
same,TGI,M19-MEL melanoma,> 100 µM
same,TGI,LXFL 529 NSCLC,> 100 µM
same,TGI,NCI-H460 lung,> 100 µM
same,TGI,NCI-H522 lung,78.1 µM
same,TGI,A549 NSCLC,> 100 µM
same,TGI,SNB-78 CNS,> 100 µM
same,TGI,OVCAR-8 ovarian,> 100 µM
same,TGI,SR leukemia,93.4 µM
same,TGI,SK-OV-3 ovarian,> 100 µM
same,TGI,NCI-H226 lung,> 100 µM
same,TGI,HT29 colon,> 100 µM
same,TGI,SN12C renal,> 100 µM
same,TGI,UACC-62 melanoma,> 100 µM
same,TGI,RPMI-8226 leukemia,> 100 µM
same,TGI,UO-31 renal,> 100 µM
same,TGI,HL-60(TB) leukemia,> 100 µM
same,TGI,CCRF-CEM leukemia,> 100 µM
same,TGI,A498 renal,> 100 µM
same,TGI,M14 melanoma,89.6 µM
same,TGI,NCI-H23 lung,> 100 µM
same,TGI,DMS 114 small cell lung,> 100 µM
same,TGI,HOP-62 NSCLC,> 100 µM
same,TGI,MALME-3M melanoma,95.4 µM
same,TGI,SK-MEL-28 melanoma,> 100 µM
same,TGI,UACC-257 melanoma,> 100 µM
same,TGI,SW-620 colon,> 100 µM
same,TGI,OVCAR-3 ovarian,79.7 µM
same,TGI,OVCAR-4 ovarian,> 100 µM
same,TGI,SF-539 CNS,> 100 µM
same,TGI,SNB-19 CNS,> 100 µM
same,TGI,XF 498 CNS,> 100 µM
same,TGI,LOX IMVI melanoma,> 100 µM
same,TGI,KM20L2 colon,> 100 µM
same,TGI,SNB-75 CNS,> 100 µM
same,TGI,OVCAR-5 ovarian,> 100 µM
same,TGI,SF-295 CNS,> 100 µM
same,TGI,SF-268 CNS,> 100 µM
same,TGI,SK-MEL-5 melanoma,62.1 µM
same,TGI,KM12 colon,> 100 µM
same,TGI,HCT-116 colon,> 100 µM
same,TGI,COLO 205 colon,> 100 µM
same,TGI,EKVX NSCLC,89.7 µM
same,TGI,TK-10 renal,> 100 µM
same,TGI,SK-MEL-2 melanoma,> 100 µM
same,TGI,HOP-92 NSCLC,97.8 µM
same,TGI,CAKI-1 renal,94.6 µM
same,TGI,U251 CNS,> 100 µM
NC(=O)C12CC3CC(CC(F)(C3)C1)C2,TGI,DMS 273 small cell lung,> 100 µM
same,TGI,DLD-1 colon,> 100 µM
same,TGI,MOLT-4 leukemia,> 100 µM
same,TGI,K-562 leukemia,> 100 µM
same,TGI,RXF 393 renal,> 100 µM
same,TGI,ACHN renal,> 100 µM
same,TGI,786-0 renal,> 100 µM
same,TGI,IGROV1 ovarian,> 100 µM
same,TGI,M19-MEL melanoma,> 100 µM
same,TGI,LXFL 529 NSCLC,> 100 µM
same,TGI,NCI-H460 lung,> 100 µM
same,TGI,NCI-H522 lung,> 100 µM
same,TGI,A549 NSCLC,> 100 µM
same,TGI,SNB-78 CNS,> 100 µM
same,TGI,OVCAR-8 ovarian,> 100 µM
same,TGI,SK-OV-3 ovarian,> 100 µM
same,TGI,HT29 colon,> 100 µM
same,TGI,UACC-62 melanoma,> 100 µM
same,TGI,RPMI-8226 leukemia,> 100 µM
same,TGI,UO-31 renal,> 100 µM
same,TGI,HL-60(TB) leukemia,> 100 µM
same,TGI,CCRF-CEM leukemia,> 100 µM
same,TGI,A498 renal,> 100 µM
same,TGI,M14 melanoma,> 100 µM
same,TGI,NCI-H23 lung,> 100 µM
same,TGI,DMS 114 small cell lung,> 100 µM
same,TGI,HOP-62 NSCLC,> 100 µM
same,TGI,MALME-3M melanoma,> 100 µM
same,TGI,SK-MEL-28 melanoma,> 100 µM
same,TGI,UACC-257 melanoma,> 100 µM
same,TGI,SW-620 colon,> 100 µM
same,TGI,OVCAR-3 ovarian,> 100 µM
same,TGI,SF-539 CNS,> 100 µM
same,TGI,XF 498 CNS,> 100 µM
same,TGI,LOX IMVI melanoma,> 100 µM
same,TGI,KM20L2 colon,> 100 µM
same,TGI,SNB-75 CNS,> 100 µM
same,TGI,OVCAR-5 ovarian,> 100 µM
same,TGI,KM12 colon,> 100 µM
same,TGI,HCT-116 colon,> 100 µM
same,TGI,COLO 205 colon,> 100 µM
same,TGI,EKVX NSCLC,> 100 µM
same,TGI,TK-10 renal,> 100 µM
same,TGI,SK-MEL-2 melanoma,> 100 µM
same,TGI,HOP-92 NSCLC,> 100 µM
same,TGI,U251 CNS,> 100 µM
same,TGI,HCC-2998 colon,> 100 µM
